# Assay results from the OligoGym collection.
# “And” between values parts separate entries of the source, which are not always exact repeats. Equal entries are not always repeated. After the bases stand the sugars from the 5' end (letter, count) and the backbone: PS all phosphorothioate, else s phosphorothioate and o phosphodiester by linkage. Methylation of C is not given here. e = 2'-O-(2-methoxyethyl) (MOE); k = constrained ethyl (cEt); d = 2'-deoxy (DNA)
# Target: IRF4
# Conditions: ASO
Sequence,"target mRNA inhibition (MM.1R, 1 µM)","target mRNA inhibition (SK-MEL-28, 4 µM) [%]",further results
"CCCATCGAATCTGCCC (sugars k3 d10 k3, PS)",-24%,–,–
"GTGATAGCTGAGCTGA (sugars kkdddddddddkdkdk, PS)",34%,–,–
"CTCGAGGCCAACGACT (sugars k3 d10 k3, PS)",–,1,–
"TATGGCTAAACCTGGC (sugars k3 d10 k3, PS)",–,43,–
"AGCTTGATAAAGGCTG (sugars e1 k2 d9 k2 e2, PS)",1%,–,–
"CGCTCAGGACTCAGGG (sugars k3 d10 k3, PS)",–,55,–
"GAATAGGACCCCTATC (sugars k3 d10 k3, PS)",-3%,–,–
"AAAGACAAGTGCCCAT (sugars k3 d10 k3, PS)",–,24,–
"GAATAGGAAGATATCA (sugars k3 d10 k3, PS)",–,6,–
"GCTCAATAATCTCCCA (sugars k3 d10 k3, PS)",0%,–,–
"GAACGCACGGACGAAC (sugars k3 d10 k3, PS)",–,18,–
"ACTTAGACATTACTAG (sugars k3 d10 k3, PS)",–,20,–
"ATAACGAGGTGCCTTA (sugars k3 d10 k3, PS)",–,13,–
"TTTCATATTTGGAGCC (sugars k3 d10 k3, PS)",25% and 45%,75,"target mRNA inhibition (MM.1R, 0.0625 µM): -3% and 21%; target mRNA inhibition (MM.1R, 0.25 µM): 10% and 18%; target mRNA inhibition (MM.1R, 4 µM): 45% and 60%"
"CCACACAAGTCTTAGG (sugars k3 d10 k3, PS)",15%,–,–
"GCCAAGGATAACCTGA (sugars k3 d10 k3, PS)",27%,69,"target mRNA inhibition (MM.1R, 0.0625 µM): 1%; target mRNA inhibition (MM.1R, 0.074 µM): 0%; target mRNA inhibition (MM.1R, 0.222 µM): 5%; target mRNA inhibition (MM.1R, 0.25 µM): 10%; target mRNA inhibition (MM.1R, 0.666 µM): 13%; target mRNA inhibition (MM.1R, 2 µM): 37%; target mRNA inhibition (MM.1R, 4 µM): 59%"
"GTCTAGCTGGGTTTTC (sugars k3 d10 k3, PS)",–,63,–
"AATATAGTTGTCTGGC (sugars k3 d10 k3, PS)",–,50,–
"GAGGTAAATCTTCACT (sugars k3 d10 k3, PS)",–,70,–
"GTAAAGGTAAAGGCAC (sugars k3 d10 k3, PS)",–,42,–
"ATTCCAACAGGCGGAC (sugars k3 d10 k3, PS)",2%,–,–
"TGCGAAGAATTTTAGC (sugars k3 d10 k3, PS)",–,41,–
"CTTTAGTGTCGCCATG (sugars k3 d10 k3, PS)",–,29,–

Sequence,"target mRNA inhibition (MM.1R, 1 µM)","target mRNA inhibition (SK-MEL-28, 4 µM) [%]",further results
"TCTTTGAAGTGCTGTG (sugars k3 d10 k3, PS)",–,57,–
"CATCACTCTAGTCAGT (sugars k3 d10 k3, PS)",–,59,–
"CAGTGACTTGCATCCA (sugars kkdddddddddkdkdk, PS)",36%,–,–
"GCAAGTCTACAGCCCC (sugars k3 d10 k3, PS)",–,–,"target mRNA inhibition (MM.1R, 0.0625 µM): -7%; target mRNA inhibition (MM.1R, 0.25 µM): 7%; target mRNA inhibition (MM.1R, 4 µM): 68%"
"ACCATTCAGACAGATG (sugars k3 d10 k3, PS)",–,30,–
"TGGTTGGCTGGTCTTT (sugars kkdddddddddekeke, PS)",60%,–,–
"GCCTTCTCGGAACTTT (sugars k3 d10 k3, PS)",–,32,–
"GACAGTGACTTGCATC (sugars k3 d10 k3, PS)",24%,–,–
"ACTTGCTAAGTCTTAT (sugars k3 d10 k3, PS)",13%,–,–
"AGTTTAAGGGTTACGC (sugars k3 d10 k3, PS)",4% and 24%,63,"target mRNA inhibition (MM.1R, 0.0625 µM): -2% and 15%; target mRNA inhibition (MM.1R, 0.074 µM): 7%; target mRNA inhibition (MM.1R, 0.222 µM): 8%; target mRNA inhibition (MM.1R, 0.666 µM): 20%; target mRNA inhibition (MM.1R, 2 µM): 28%; target mRNA inhibition (MM.1R, 4 µM): 22% and 40%"
"CTACAAAGAGCACTGC (sugars k3 d10 k3, PS)",–,53,–
"GACAGTGACTTGCATC (sugars k2 d9 e3 k2, PS)",24%,–,–
"GCGCGGAGGACCTCGC (sugars k3 d10 k3, PS)",–,10,–
"AGCCAACTTATAGCAC (sugars k3 d10 k3, PS)",–,54,–
"AGAGGCGACTGCTGAA (sugars k3 d10 k3, PS)",-19%,–,–
"TGGATCTGAATTGTTA (sugars k3 d10 k3, PS)",–,55,–
"AACCATTACTTAGACA (sugars k3 d10 k3, PS)",–,45,–
"AAACGACAAGTGGCGC (sugars k3 d10 k3, PS)",–,21,–
"CCAAAGGGTTCAGTGT (sugars k3 d10 k3, PS)",–,26,–
"ACACTTTTAGAGAGGA (sugars kdddddddddkekeke, PS)",6%,–,–
"CGCTTGTGGATATACA (sugars k3 d10 k3, PS)",0%,–,–
"AAGCATTTTATCATCC (sugars k2 d9 e3 k2, PS)",21%,–,–
